{"source": "patent US5872107A", "about": "“Treatment of urogenital cancer with boron neutron capture therapy” (Emory University, priority 1997, dated 1999)", "key": {"[1]": {"assay": "Partition coefficient of CDU in octanol:phosphate buffer (pH 7.4)", "assay_type": "physicochemical", "protocol": "The partition coefficient (P) of CDU was determined in octanol:phosphate buffer (pH 7.4). The octanol and aqueous phases were equilibrated by shaking together for 1 hour at 20° C. Two milliliters (2 ml) of octanol containing 0.5 mg/ml of CDU were shaken with 4 ml of buffer on a horizontal shaker for 12, hour at 25° C. Tubes were centrifuged to separate the phases and both phases were analyzed by HPLC as described below. The partition coefficient was calculated by dividing the CDU concentration in octanol by the CDU concentration in buffer. Results are reported as log P values.\nThe average octanol:phosphate buffer, pH 7.4, P value was determined to be 3090."}, "[2]": {"assay": "Pharmacokinetics of CDU in plasma after intravenous administration of 25 mg/kg to rats", "assay_type": "in vivo, Sprague-Dawley rats", "protocol": "5-Carboranyl-2'-deoxyuridine (CDU) was synthesized by the method of Yamamoto, et al. The chemical purity, confirmed by ^1 H NMR spectral and high-pressure liquid chromatography (HPLC) analysis, was greater than 98%. For intravenous administration, CDU was dissolved in dimethylsulfoxide (DMSO). Internal standard, progesterone, and β-glucuronidase were purchased from Sigma Chemical Company (St. Louis, Mo.). Methanol, HPLC grade, and all other chemicals, analytical grade, were obtained from J. T. Baker (Phillipsburg, N.J.). Partition coefficients were determined one hour after administration.\nFive adult male Sprague-Dawley (Harlan Laboratories, Indianapolis, Ind.) rats weighing 303±8 g (mean±SD) were used for the pharmacokinetic study. Rats were housed in a 12 hour light/12 hour dark, constant temperature (22° C.) environment with free access to standard laboratory chow and water. Animals were acclimatized to this environment for one week before the experiment. External jugular vein cannulas were implanted under ketamine:acepromazine:xylazine (50:3.3:3.3 mg/kg) anesthesia the day before the experiment. Rats were fasted overnight, however, water was available ad libitum.\nOn the morning of the experiment, rats were placed in individual metabolism cages. CDU […]) was administered intravenously in 0.1 ml of DMSO to the rats over a one minute period. Blood samples (0.35 ml) were collected prior to and at […], 2, 3, 4, 5, 6, 7 and 8 hour after CDU administration from the cannula into heparinized polypropylene microcentrifuge tubes. Blood volume was replaced with an equal volume of normal saline. Blood samples were immediately centrifuged at 2000 g for 5 minutes and plasma was separated and frozen at -20° C. until analysis. Urine was collected for 24 hour following CDU administration. Urine volume was measured and samples were frozen at -20° C. until analysis.\nConcentrations of CDU in plasma, brain, and urine were determined by HPLC. For the determination of CDU in brain, the brain tissue was homogenized in a 1:2 (g:ml) ratio with isotonic sodium phosphate buffer, pH 7.4. To 200 μl of plasma or brain homogenate in a glass test tube, 50 μl of internal standard (20 μg/ml progesterone) and 5 ml of methylene chloride was added. Tubes were shaken for 15 minutes at low speed on a shaker, centrifuged for 5 minutes at 2000 rpm, and the plasma layer was aspirated off using a vacuum system. The remaining methylene chloride was transferred to a glass culture tube and evaporated to dryness under a stream of nitrogen gas at ambient temperature. The residue was reconstituted with 250 μl of methanol and injected onto HPLC system.\nChromatography was performed on a Hypersil ODC column (5 μm particle size, 4.6×150 mm; Alltech Associates Inc., Deerfield, Ill.) with an online guard column and an isocratic mobile phase of 65% methanol in 10 mM monobasic potassium phosphate, pH 6.3 at a flow rate of 1.5 ml/min. Compounds were detected at a UV wavelength of 274 nm with a detector range setting of 0.005 absorbance units, full scale.\nThe retention times of CDU and internal standard were 4.7 and 8.6 min, respectively. Sample CDU concentrations were calculated from the slope of calibration plots of the peak area ratio of CDU:internal standard versus standard CDU concentrations. The slopes and intercepts were generated using weighted (1/x^2) least-squares regression analysis. Standard curves were linear in the range of 0.1 μg/ml to 50 μg/ml. The intra- and inter-day relative standard deviations over the range of standard concentrations in all biological media were less than 10%. The extraction recoveries of CDU and progesterone were 99% and 95%, respectively.\nArea/moment analysis was used to calculate pharmacokinetic parameters of CDU. […]"}, "[3]": {"test_system": "xenographed human prostate tumor", "assay": "Accumulation of CDU in xenographed human prostate tumor, brain and serum of nude mice", "assay_type": "in vivo", "source_text": "The development of the immunodeficient athymic nude mouse has permitted the establishment of human tumors in serial transplantation which provides a representative model of the human disease state. This system, which uses the subcutaneous or subrenal capsule assay is particularly useful in assessing new therapeutic strategies in the treatment of human malignancies and ensures the availability of a constant source of non-attenuated fresh human tumor cells.\nAny of these systems can be used to evaluate the extent of accumulation of a selected boron-containing compound in a selected urogenital cancer cell line, or the effect of irradiation of the accumulated compound on that cell line. A detailed example of the evaluation of the accumulation of CDU in a xenographed human prostate tumor obtained from nude mice treated intraperitoneally with 5 mg/kg of tritiated CDU (15 μCi/mouse) is provided in Example 5.\nTo analyze the concentration of ^10 B-containing compounds in urogenital tissue, the tumor is removed from the animal and then lyophylized. The ^10 B-containing compounds are extracted with a methanol/water solution, and then counted using known methods.\nTable 1 provides a summary of the accumulation of CDU in a xenographed human prostate tumor on nude mice treated intraperitoneally with 5 mg/kg of tritiated CDU (15 μCu/mouse). […] The compound partitions in a ratio of approximately 2:1 in the prostate versus blood serum."}, "[4]": {"settings": "25 mg/kg i.v., rats, total plasma concentrations, 25 mg/kg"}, "[5]": {"settings": "25 mg/kg i.v., individual rat, 25 mg/kg"}, "[6]": {"settings": "25 mg/kg i.v., individual rat, unbound"}, "[7]": {"settings": "25 mg/kg i.v., mean of five rats"}, "[8]": {"settings": "25 mg/kg i.v., mean of five rats, unbound"}, "[9]": {"settings": "brain, 1 hr after CDU, 5 mg/kg tritiated CDU i.p."}, "[10]": {"settings": "brain, 2 hr after CDU, 5 mg/kg tritiated CDU i.p."}, "[11]": {"settings": "serum, 1 hr after CDU, 5 mg/kg tritiated CDU i.p."}, "[12]": {"settings": "serum, 2 hr after CDU, 5 mg/kg tritiated CDU i.p."}, "[13]": {"settings": "tumor, 2 hr after CDU, 5 mg/kg tritiated CDU i.p."}}, "note": "Where “and” joins values, the source holds several entries; their conditions need not be identical. Equal values may be shown once.", "data": [{"substance": "5-carboranyl-2'-deoxyuridine [CDU]", "values": [{"measurement": "lipophilicity (in words)", "setting": "[1]", "value": "highly lipophilic"}, {"measurement": "log P", "setting": "[1]", "value": 3.49}, {"measurement": "decline of plasma concentrations (in words)", "setting": "[2]; 25 mg/kg i.v., rats", "value": "declined in a biexponential fashion"}, {"measurement": "volume of distribution based on unbound CDU concentrations", "setting": "[2]; 25 mg/kg i.v., rats", "value": 15.5, "unit": "kg⁻¹"}, {"measurement": "clearance based on unbound plasma CDU concentrations (CLf)", "setting": "[2]; 25 mg/kg i.v., rats, average", "value": "255.5 ± 74 mL/min/kg and 255 mL/min/kg"}, {"measurement": "terminal half-life", "setting": "[2]; 25 mg/kg i.v., rats, mean±SD", "value": "1.26 ± 0.28", "unit": "h"}, {"measurement": "steady-state volume of distribution", "setting": "[2]; [4]", "value": "0.70 ± 0.23 kg⁻¹ and 0.7 kg⁻¹"}, {"measurement": "total clearance", "setting": "[2]; [4]", "value": "11.5 ± 3.3 mL/min/kg and 11.5 mL/min/kg"}, {"measurement": "AUC, individual rats", "setting": "[2]; [5]", "value": "32.39 mg h 1^-1 and 25.14 mg h 1^-1 and 44.68 mg h 1^-1 and 42.49 mg h 1^-1 and 47.28 mg h 1^-1"}, {"measurement": "CLT, individual rats", "setting": "[2]; [5]", "value": "0.77 1 h^-1 kg^-1 and 0.99 1 h^-1 kg^-1 and 0.56 1 h^-1 kg^-1 and 0.59 1 h^-1 kg^-1 and 0.53 1 h^-1 kg^-1"}, {"measurement": "MRT, individual rats", "setting": "[2]; [5]", "value": "1.17 h and 0.51 h and 0.81 h and 1.64 h and 1.24 h"}, {"measurement": "V33 (steady-state volume of distribution), individual rats", "setting": "[2]; [5]", "value": "0.90 1 kg^-1 and 0.51 1 kg^-1 and 0.45 1 kg^-1 and 0.97 1 kg^-1 and 0.65 1 kg^-1"}, {"measurement": "t1/2, individual rats", "setting": "[2]; [5]", "value": "1.46 h and 1.20 h and 0.81 h and 1.54 h and 1.28 h"}, {"measurement": "CLf, individual rats", "setting": "[2]; [6]", "value": "17.15 1 h^-1 kg^-1 and 22.33 1 h^-1 kg^-1 and 12.36 1 h^-1 kg^-1 and 13.07 1 h^-1 kg^-1 and 11.76 1 h^-1 kg^-1"}, {"measurement": "Vss,f, individual rats", "setting": "[2]; [6]", "value": "20.02 1 kg^-1 and 11.29 1 kg^-1 and 10.09 1 kg^-1 and 21.56 1 kg^-1 and 14.53 1 kg^-1"}, {"measurement": "AUC, mean", "setting": "[2]; [7]", "value": 38.39, "unit": "mg h 1^-1"}, {"measurement": "MRT, mean", "setting": "[2]; [7]", "value": 1.07, "unit": "h"}, {"measurement": "V33 (steady-state volume of distribution), mean", "setting": "[2]; [7]", "value": "0.70 1 kg^-1"}, {"measurement": "t1/2, mean", "setting": "[2]; [7]", "value": 1.26, "unit": "h"}, {"measurement": "CLf, mean", "setting": "[2]; [8]", "value": "15.33 1 h^-1 kg^-1"}, {"measurement": "Vss,f, mean", "setting": "[2]; [8]", "value": "15.50 1 kg^-1"}, {"measurement": "metabolic intrinsic clearance of free drug", "setting": "[2]; estimated, unbound drug", "value": 333, "unit": "mL/min/kg"}, {"measurement": "Mean DPM/mg of dry weight, brain, 1 hr", "setting": "[3]; [9]", "value": "42.8 DPM/mg of dry weight"}, {"measurement": "pmole/mg of dry weight, brain, 1 hr", "setting": "[3]; [9]", "value": "0.32 pmole/mg of dry weight"}, {"measurement": "Mean DPM/mg of dry weight, brain, 2 hr", "setting": "[3]; [10]", "value": "23.4 DPM/mg of dry weight"}, {"measurement": "pmole/mg of dry weight, brain, 2 hr", "setting": "[3]; [10]", "value": "0.17 pmole/mg of dry weight"}, {"measurement": "accumulation in the prostate cancer cells (in words)", "setting": "[3]; over brain tissue and serum, 5 mg/kg tritiated CDU i.p.", "value": "significantly accumulates in the prostate cancer cells, and preferentially so, over brain tissue and serum"}, {"measurement": "Mean DPM/mg of dry weight, serum, 1 hr", "setting": "[3]; [11]", "value": "181.0 DPM/mg of dry weight"}, {"measurement": "pmole/mg of dry weight, serum, 1 hr", "setting": "[3]; [11]", "value": "1.33 pmole/mg of dry weight"}, {"measurement": "Mean DPM/mg of dry weight, serum, 2 hr", "setting": "[3]; [12]", "value": "111.0 DPM/mg of dry weight"}, {"measurement": "pmole/mg of dry weight, serum, 2 hr", "setting": "[3]; [12]", "value": "0.82 pmole/mg of dry weight"}, {"measurement": "pmole/mg of dry weight, tumor, 1 hr", "setting": "[3]; tumor, 1 hr after CDU, 5 mg/kg tritiated CDU i.p.", "value": "3.60 pmole/mg of dry weight"}, {"measurement": "Mean DPM/mg of dry weight, tumor, 1 hr", "setting": "[3]; tumor, 1 hr after CDU, 5 mg/kg tritiated CDU i.p. (15 μCi/mouse)", "value": "489.1 DPM/mg of dry weight"}, {"measurement": "Mean DPM/mg of dry weight, tumor, 2 hr", "setting": "[3]; [13]", "value": "256.7 DPM/mg of dry weight"}, {"measurement": "pmole/mg of dry weight, tumor, 2 hr", "setting": "[3]; [13]", "value": "1.89 pmole/mg of dry weight"}]}]}
